Assay results taken from US5254589A, “Sulfonyl urea and carbamate ACAT inhibitors” (priority 1991, dated 1993).

Columns and labels:
[1] = In vivo screen APCC: blood cholesterol in rats fed a high fat, high cholesterol diet with 0.5% cholic acid; parameters: species or system male Sprague-Dawley rats; settings: 16 h, rat, 30 mg/kg unless otherwise noted, dosed at 4 PM, high cholesterol diet overnight, blood sampled at 8 AM, read-out: APCC (% .increment.TC)
Text: In one in vivo screen designated APCC, male Sprague-Dawley rats (200 to 225 g) were randomly divided into treatment groups and dosed at 4 PM with either vehicle (CMC/Tween) or suspensions of compounds in vehicle. The normal chow diet was then replaced with a high fat, high cholesterol diet with 0.5% cholic acid. The rats consumed this diet ad libitum during the night and were sacrificed at 8 AM to obtain blood samples for cholesterol analysis using standard procedures. Statistical differences between mean cholesterol values for the same vehicle were determined using analysis of variance followed by Fisher's least significant test. The compounds were dosed at 30 mg/kg unless otherwise noted.

[2] = target: T1, acyl-CoA:cholesterol acyltransferase (ACAT) (Oryctolagus cuniculus, UniProt G1SFD9); test: In vitro ACAT inhibition (IAI): formation of radiolabeled cholesterol oleate from radiolabeled oleic acid in rabbit intestinal microsomes; type: biochemical; settings: inhibition of acylation of cholesterol by oleic acid
T1 construct: in a tissue preparation containing rabbit intestinal microsomes; from tissue; host or cells: rabbit intestine, microsomes
T1 sequence (G1SFD9 1-524): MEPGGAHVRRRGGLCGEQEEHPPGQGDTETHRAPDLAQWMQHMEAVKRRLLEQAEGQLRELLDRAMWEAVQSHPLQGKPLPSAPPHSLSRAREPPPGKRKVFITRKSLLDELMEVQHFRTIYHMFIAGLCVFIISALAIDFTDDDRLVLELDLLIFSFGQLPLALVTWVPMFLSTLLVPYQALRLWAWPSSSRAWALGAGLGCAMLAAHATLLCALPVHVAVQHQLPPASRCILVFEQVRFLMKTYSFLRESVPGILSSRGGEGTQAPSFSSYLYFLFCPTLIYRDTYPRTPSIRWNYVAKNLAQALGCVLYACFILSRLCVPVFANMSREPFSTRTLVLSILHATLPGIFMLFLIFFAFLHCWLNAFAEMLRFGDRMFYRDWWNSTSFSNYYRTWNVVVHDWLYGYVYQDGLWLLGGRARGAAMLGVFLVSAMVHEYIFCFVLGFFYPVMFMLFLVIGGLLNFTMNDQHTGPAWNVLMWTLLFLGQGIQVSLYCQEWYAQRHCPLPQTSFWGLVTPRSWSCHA
Text: As shown by the data presented below in Table 1, the compounds of the present invention are potent inhibitors of the enzyme acyl-CoA:cholesterolacyltransferase (ACAT), and are thus effective in inhibiting the esterification and transport of cholesterol across the intestinal cell wall. The compounds of the present invention are thus useful in pharmaceutical formulations for the treatment of hypercholesterolemia or atherosclerosis. The ability of representative compounds of the present invention to inhibit ACAT was measured using an in vitro test more fully described in F. J. Field and R. G. Salone, Biochemica et Biophysica 712:557-570 (1982). The test assesses the ability of a test compound to inhibit the acylation of cholesterol by oleic acid by measuring the amount of radiolabeled cholesterol oleate formed from radiolabeled oleic acid in a tissue preparation containing rabbit intestinal microsomes.

Which change in vivo at 30 mg/kg [1] does the source give for CCCCCCCCCCCCCC(C)S(=O)(=O)NC(=O)Nc1c(C(C)C)cccc1C(C)C (stereo not shown) [Example 1, N-[2,6-Bis(1-methylethyl)phenyl]-N'-(2-pentadecylsulfonyl)urea] here?
The change in vivo at 30 mg/kg was -76%.

And the IC50 [2]?
The IC50 was 1020 nM.

For CCCCCCCCCCCCCCS(=O)(=O)NC(=O)Nc1c(C(C)C)cccc1C(C)C [Example 2, N-[2,6-Bis(1-methylethyl)phenyl]-N'-(tetradecylsulfonyl)urea], which change in vivo at 30 mg/kg [1] is on record?
The change in vivo at 30 mg/kg was -56%.

What about the IC50 [2] of the same molecule?
The IC50 was 830 nM.

For CCCCCCCCCCCCCCS(=O)(=O)N(C)C(=O)Nc1c(C(C)C)cccc1C(C)C [Example 3, N-[2,6-Bis(1-methylethyl)phenyl]-N'-methyl-N'-(tetradecylsulfonyl)urea], which change in vivo at 30 mg/kg [1] is on record?
The change in vivo at 30 mg/kg was -34%.

What about the IC50 [2] of the same molecule?
The IC50 was over 5000 nM.

For CCCCCCCCCCCCCCS(=O)(=O)N(Cc1ccccc1)C(=O)Nc1c(C(C)C)cccc1C(C)C [Example 4], which IC50 [2] is on record?
The IC50 was 510 nM.

With CCCCCCCCS(=O)(=O)NC(=O)Nc1c(C(C)C)cccc1C(C)C [Example 5, N-[2,6-Bis(1-methylethyl)phenyl]-N'-(octylsulfonyl)urea] as the molecule, how does the IC50 [2] read?
The IC50 was over 5000 nM.

Which results are given for CCCCCCCCCCCCS(=O)(=O)NC(=O)Nc1c(C(C)C)cccc1C(C)C [Example 6, N-[2,6-Bis(1-methylethyl)phenyl]-N'-(dodecylsulfonyl)urea]?
change in vivo at 30 mg/kg [1]: -63%; IC50 [2]: 1190 nM

Which results are given for CCCCCCCCCCCCCCCCS(=O)(=O)NC(=O)Nc1c(C(C)C)cccc1C(C)C [Example 7, N-[2,6-Bis(1-methylethyl)phenyl]-N'-(hexadecylsulfonyl)urea]?
change in vivo at 30 mg/kg [1]: -64%; IC50 [2]: 1270 nM

With CCCCCCCCCCS(=O)(=O)NC(=O)Nc1c(C(C)C)cccc1C(C)C [Example 8, N-[2,6-Bis(1-methylethyl)phenyl]-N'-(decylsulfonyl)urea] as the molecule, how does the change in vivo at 30 mg/kg [1] read?
The change in vivo at 30 mg/kg was -31%.

And the IC50 [2]?
The IC50 was 13000 nM.

For CCCCCCCCCCCCCCS(=O)(=O)NC(=O)Nc1ccc(F)cc1F [Example 10, N-(2,4-Difluorophenyl)-N'-(tetradecylsulfonyl)urea], which change in vivo at 30 mg/kg [1] is on record?
Its change in vivo at 30 mg/kg is -14%.

What about the IC50 [2] of the same molecule?
The IC50 was 5000 nM.

Which results are given for CCCCCCCCCCCCS(=O)(=O)N(C)C(=O)Nc1c(C(C)C)cccc1C(C)C [Example 11]?
change in vivo at 30 mg/kg [1]: -49%; IC50 [2]: 86 nM

Which results are given for CCCCCCCCCCCCCC(c1ccccc1)S(=O)(=O)NC(=O)Nc1c(C(C)C)cccc1C(C)C (stereo not shown) [Example 14, N-[2,6-Bis(1-methylethyl)phenyl]-N'-(1-phenyl-1-tetradecylsulfonyl)urea]?
change in vivo at 30 mg/kg [1]: -72%; IC50 [2]: 2000 nM

For CCCCCCCCC(c1ccccc1)S(=O)(=O)NC(=O)Nc1c(C(C)C)cccc1C(C)C (stereo not shown) [Example 15, N-[2,6-Bis(1-methylethyl)phenyl]-N'-(1-phenyl-1-nonylsulfonyl)urea], which change in vivo at 30 mg/kg [1] is on record?
The change in vivo at 30 mg/kg was -75%.

And the IC50 [2]?
Its IC50 is 9200 nM.
